Source: publication PMC11111408, “Concurrent inhibition of oncogenic and wild-type RAS-GTP for cancer therapy” (Nature, 2024)

Legend:
KRAS^Q61H = KRAS^Q61H (Homo sapiens, UniProt P01116+P62937, Q61H); assay: Biochemical RAS–RAF (BRAF RBD) disruption, TR-FRET
Source text: (§1) Time-resolved fluorescence resonance energy transfer (TR-FRET) was used as previously described to assess disruption of the interactions between wild-type RAS or the mutant oncogenic RAS proteins and the RAS-binding domain of BRAF, and to assess the induction of interactions between the RAS proteins and CYPA[12].

KRAS^G12A = KRAS^G12A (Homo sapiens, UniProt P01116+P62937, G12A); assay: Biochemical RAS–RAF (BRAF RBD) disruption, TR-FRET
Source text: as §1

KRAS^G13C = KRAS^G13C (Homo sapiens, UniProt P01116+P62937, G13C); assay: Biochemical RAS–RAF (BRAF RBD) disruption, TR-FRET
Source text: as §1

NRAS^Q61K = NRAS^Q61K (Homo sapiens, UniProt P01111+P62937, Q61K); assay: Biochemical RAS–RAF (BRAF RBD) disruption, TR-FRET
Source text: as §1

NRAS WT = NRAS WT (Homo sapiens, UniProt P01111+P62937); assay: Biochemical RAS–RAF (BRAF RBD) disruption, TR-FRET
Source text: as §1

NRAS^Q61L = NRAS^Q61L (Homo sapiens, UniProt P01111+P62937, Q61L); assay: Biochemical RAS–RAF (BRAF RBD) disruption, TR-FRET; conditions: (95% CI)
Source text: as §1

HRAS^G13R = HRAS^G13R (Homo sapiens, UniProt P01112+P62937, G13R); assay: Biochemical RAS–RAF (BRAF RBD) disruption, TR-FRET; conditions: HRAS^G13R; BRAF RBD; (95% CI); read-out: Biochemical RAS-RAF Disruption EC50
Source text: as §1

KRAS^G13D = KRAS^G13D (Homo sapiens, UniProt P01116+P62937, G13D); assay: Biochemical RAS–RAF (BRAF RBD) disruption, TR-FRET
Source text: as §1

NRAS^Q61R = NRAS^Q61R (Homo sapiens, UniProt P01111+P62937, Q61R); assay: Biochemical RAS–RAF (BRAF RBD) disruption, TR-FRET; conditions: (95% CI)
Source text: as §1

RAS-less MEFs = assay: Western blots of isogenic RAS-less MEF cells expressing KRAS variants or BRAF(V600E); assay type: cell-based, mouse; conditions: 24 h, western blot
Capan-1 cells = assay: Cell proliferation (CTG); assay type: cell-based; conditions: Homo sapiens; Capan-1, CTG; (95% CI)
Protocol: Alternatively, cells were seeded in round-bottom ultra-low attachment 96-well plates, centrifuged at 1,000 rpm for 10 min to pellet the cells, and incubated overnight or up to 72 h to allow for 3D spheroid formation. […] Cell viability was determined by CellTiter-Glo 2.0 reagent (2D CTG) (Promega, G9243) or 3D CellTiter-Glo reagent (3D CTG) (Promega, G9683) according to the manufacturer’s protocols. Luminescence was detected using a SpectraMax M5 Plate Reader (Molecular Devices) of Perkin Elmer Enspire. Luminescence signal was normalized to vehicle-treated wells (normalized signal (%) = (luminescence (treated)/mean luminescence (vehicle)) × 100%). […] Data were plotted as log [inhibitor (M)], and a four-parameter sigmoidal concentration response model was fitted to the data to calculate EC50. […] Pa16C MEK1 mutant cells were evaluated by live-cell counting using Calcein AM and a SpectraMax i3X multi-mode detection platform (Molecular Devices). Growth percentages were calculated by normalizing the treated cell counts to their respective untreated cell counts.

In the case of `CCn1c(-c2cc(N3CCN(C4CC4)CC3)cnc2[C@H](C)OC)c2c3cc(ccc31)-c1csc(n1)C[C@H](NC(=O)[C@H]1[C@@H]3COC[C@@H]31)C(=O)N1CCC[C@H](N1)C(=O)OCC(C)(C)C2` [RMC-7977], the EC50 (KRAS^Q61H) is reported as 47.7 nM, the EC50 (KRAS^G12A) is reported as 102 nM and the EC50 (KRAS^G13C) is reported as 49.7 nM. The EC50 (NRAS^Q61K) was 53.9 nM, the EC50 (NRAS WT) was 57.7 nM and the EC50 (NRAS^Q61L) was 145 nM. The EC50 (HRAS^G13R) was 23.7 nM, the EC50 (KRAS^G13D) was 142 nM and the EC50 (NRAS^Q61R) was 181 nM. The “pERK suppression in RAS-less MEFs” value (RAS-less MEFs) was “suppressed pERK in all KRAS-expressing cells, but not in BRAF(V600E)-expressing RAS-less MEFs” and the EC50 (Capan-1 cells) was 2.2 nM.
